Where two headings read alike, the source gives them in different places.
Columns and labels:
in vivo = conditions: female, BALB/c, mouse, ip
[1] = mouse, in vivo, ip
[2] = Plasma levels in mice after single intraperitoneal dose; conditions: female, BALB/c, mouse, in vivo, ip, 100 mg/kg
[3] = 14-day repeated dose toxicity study in mice; conditions: 5, 10 and 25 mg/kg/day i.p. for 14 days; normal behavior and food consumption
gelatinases = conditions: cited from earlier work
metastasis = conditions: 50 mg/kg/day; cited from earlier work
[4] = mice, single intraperitoneal dose at the same dose level (100 mg/kg); cited from earlier work
in vitro = conditions: male, Sprague-Dawley, rat, microsomes, pH 7.4

CS(=O)(=O)Oc1ccc(Oc2ccc(S(=O)(=O)CC3CS3)cc2)cc1 (stereo not drawn) [Compound 2, 4-(4-(Thiiranylmethylsulfonyl)phenoxy)-phenyl methanesulfonate]
concentration at 1 h (in vivo; 5 mg/kg/day): < 1 µM | concentration at 1 h (in vivo; 10 mg/kg/day): < 1 µM | concentration at 1 h (in vivo; 25 mg/kg/day): 3.2 µM | Concentration of 2 at 1 h ([1]; female, BALB/c, 25 mg/kg/day, 1 h): 3.2 µM | Concentration of 2 at 1 h ([1]; 5 mg/kg/day): LOQ | Concentration of 2 at 1 h ([1]; 10 mg/kg/day): LOQ | concentration at 1 h [2]: 70.5 µM | toxicity upon multiple-dose administration [3]: No toxicity was observed

O=S(=O)(CC1CS1)c1ccc(Oc2ccc(O)cc2)cc1 (stereo not drawn) [p-hydroxy variant]
gelatinase inhibitory activity relative to parent 1 (gelatinases): more active gelatinase inhibitor than the parent 1

O=S(=O)(CC1CS1)c1ccc(Oc2ccccc2)cc1 (stereo not drawn) [Compound 1, (4-phenoxyphenylsulfonyl)methylthiirane]
efficacy in mouse models of metastasis (metastasis): has shown efficacy | plasma levels at 1 h [4]: < 1 µM | remaining at 0.25 h, 25 μM (in vitro): 0.5%
